{"source": "patent US6914045B2", "about": "“Glycopeptide antibiotics” (Wyeth Holdings Corporation, priority 2001, dated 2005)", "assay_in_all_cases": "in vitro antibacterial evaluation, MIC by broth dilution", "format_in_all_cases": "cell-based", "key": {"Staphylococcus sp.": {"test_system": "Staphylococcus sp.", "conditions": "broth dilution, 18 hours at 35° C.; for MIC Staphylococcus aureus (GC 1131): strain GC 1131", "outline": "(§1)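 MIC = lowest antibiotic concentration preventing visible growth; inoculum 5×10^5 CFU/mL; drug range 64-0.06 μg/mL; Muller-Hinton II […]; NCCLS M7-A2 guidance.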"}, "Streptococcus sp.": {"test_system": "Streptococcus sp.", "conditions": "broth dilution, 18 hours at 35° C.; for MIC Streptococcus pneumoniae (ATCC 6301): strain ATCC 6301; for MIC Streptococcus pneumoniae (GC 1894): strain GC 1894; for MIC Streptococcus pyogenes (GC 4563): strain GC 4563; for MIC Streptococcus agalactiae (GC 4564): strain GC 4564; for MIC Streptococcus pneumoniae (GC 4565): strain GC 4565", "outline": "as §1"}, "Escherichia coli": {"test_system": "Escherichia coli", "outline": "as §1"}, "Enterococcus sp.": {"test_system": "Enterococcus sp.", "conditions": "broth dilution, 18 hours at 35° C.; for MIC Enterococcus faecalis (ATCC 29212): strain ATCC 29212; for MIC Enterococcus faecalis (GC 2242): strain GC 2242; for MIC Enterococcus faecium (GC 2243): strain GC 2243; for MIC Enterococcus faecalis (GC 2691): strain GC 2691; for MIC Enterococcus faecalis (GC 3059): strain GC 3059; for MIC Enterococcus faecalis (GC 4552): strain GC 4552; for MIC Enterococcus faecalis (GC 4553): strain GC 4553; for MIC Enterococcus faecalis (GC 4554): strain GC 4554; for MIC Enterococcus faecium (GC 4556): strain GC 4556; for MIC Enterococcus faecium (GC 4557): strain GC 4557; for MIC Enterococcus avium (GC 4558): strain GC 4558; for MIC Enterococcus faecalis (GC 6189): strain GC 6189", "outline": "as §1"}}}
{"smiles": "CC(c1ccccc1)C1NC(=O)CNC(=O)C(CO)NC(=O)C(C(O)C2CNC(=N)N2C2OC(CO)C(O)C(O)C2O)NC(=O)C(C(O)C2CNC(=N)N2)NC(=O)C(Cc2ccc(OC3OC(CO)C(OC4OC5COC(c6ccc(-c7ccc(Cl)cc7)cc6)OC5C(O)C4O)C(O)C3O)cc2)NC1=O", "note": "(stereo not drawn) [Example 178, Cyclo[glycyl-β-methylphenylalanyl-O-[4-O-[4,6-O-[4-(4-chlorophenyl)benzylidene]hexopyranosyl]hexopyranosyl]tyrosyl-3-(2-iminoimidazolidin-4-yl)seryl-3-(3-hexopyranosyl-2-iminoimidazolidin-4-yl)serylseryl]]", "values": [{"measurement": "MIC Staphylococcus aureus (GC 1131)", "setting": "Staphylococcus sp.; inoculum 5×10^5 CFU/mL", "result": 4, "unit": "µg/mL"}, {"measurement": "MIC Staphylococcus aureus (ATCC 29213)", "setting": "Staphylococcus sp.; strain ATCC 29213", "result": 16, "unit": "µg/mL"}, {"measurement": "MIC Staphylococcus aureus (GC 1131)", "setting": "Staphylococcus sp.", "result": 4, "unit": "µg/mL"}, {"measurement": "MIC Staphylococcus aureus (GC 3051)", "setting": "Staphylococcus sp.; strain GC 3051", "result": 8, "unit": "µg/mL"}, {"measurement": "MIC Staphylococcus aureus (GC 3053)", "setting": "Staphylococcus sp.; strain GC 3053", "result": 4, "unit": "µg/mL"}, {"measurement": "MIC Staphylococcus aureus (GC 4541)", "setting": "Staphylococcus sp.; strain GC 4541", "result": 8, "unit": "µg/mL"}, {"measurement": "MIC Staphylococcus aureus (GC 4542)", "setting": "Staphylococcus sp.; strain GC 4542", "result": 8, "unit": "µg/mL"}, {"measurement": "MIC Staphylococcus aureus (GC 4544)", "setting": "Staphylococcus sp.; strain GC 4544", "result": 8, "unit": "µg/mL"}, {"measurement": "MIC Staphylococcus aureus (GC 4545)", "setting": "Staphylococcus sp.; strain GC 4545", "result": 4, "unit": "µg/mL"}, {"measurement": "MIC Staphylococcus aureus-SMITH (GC 4543)", "setting": "Staphylococcus sp.; strain GC 4543", "result": 4, "unit": "µg/mL"}, {"measurement": "MIC Staphylococcus haemolyticus (GC 4546)", "setting": "Staphylococcus sp.; strain GC 4546", "result": 8, "unit": "µg/mL"}, {"measurement": "MIC Coagulase Negative Staphylococcus (GC 4547)", "setting": "Staphylococcus sp.; strain GC 4547", "result": 32, "unit": "µg/mL"}, {"measurement": "MIC Coagulase Negative Staphylococcus (GC 4548)", "setting": "Staphylococcus sp.; strain GC 4548", "result": 0.5, "unit": "µg/mL"}, {"measurement": "MIC Coagulase Negative Staphylococcus (GC 4549)", "setting": "Staphylococcus sp.; strain GC 4549", "result": 2, "unit": "µg/mL"}, {"measurement": "MIC Coagulase Negative Staphylococcus (GC 4551)", "setting": "Staphylococcus sp.; strain GC 4551", "result": 4, "unit": "µg/mL"}, {"measurement": "MIC Coagulase Negative Staphylococcus (GC 6257)", "setting": "Staphylococcus sp.; strain GC 6257", "result": 2, "unit": "µg/mL"}, {"measurement": "MIC Streptococcus pneumoniae (ATCC 6301)", "setting": "Streptococcus sp.; inoculum 5×10^5 CFU/mL", "result": "<0.06", "unit": "µg/mL"}, {"measurement": "MIC Streptococcus pneumoniae (GC 1894)", "setting": "Streptococcus sp.; inoculum 5×10^5 CFU/mL", "result": "<0.06", "unit": "µg/mL"}, {"measurement": "MIC Streptococcus pyogenes (GC 4563)", "setting": "Streptococcus sp.; inoculum 5×10^5 CFU/mL", "result": 0.12, "unit": "µg/mL"}, {"measurement": "MIC Streptococcus agalactiae (GC 4564)", "setting": "Streptococcus sp.; inoculum 5×10^5 CFU/mL", "result": "<0.06", "unit": "µg/mL"}, {"measurement": "MIC Streptococcus pneumoniae (GC 4565)", "setting": "Streptococcus sp.; inoculum 5×10^5 CFU/mL", "result": "<0.06", "unit": "µg/mL"}, {"measurement": "MIC Streptococcus pneumoniae (ATCC 6301)", "setting": "Streptococcus sp.", "result": "<0.06", "unit": "µg/mL"}, {"measurement": "MIC Streptococcus pneumoniae (GC 1894)", "setting": "Streptococcus sp.", "result": "<0.06", "unit": "µg/mL"}, {"measurement": "MIC Streptococcus pyogenes (GC 4563)", "setting": "Streptococcus sp.", "result": 0.12, "unit": "µg/mL"}, {"measurement": "MIC Streptococcus agalactiae (GC 4564)", "setting": "Streptococcus sp.", "result": "<0.06", "unit": "µg/mL"}, {"measurement": "MIC Streptococcus pneumoniae (GC 4565)", "setting": "Streptococcus sp.", "result": "<0.06", "unit": "µg/mL"}, {"measurement": "MIC Escherichia coli (ATCC 25922)", "setting": "Escherichia coli; strain ATCC 25922, 18 hours at 35° C.", "result": ">64", "unit": "µg/mL"}, {"measurement": "MIC Escherichia coli (GC 4559)", "setting": "Escherichia coli; strain GC 4559, 18 hours at 35° C.", "result": ">64", "unit": "µg/mL"}, {"measurement": "MIC Escherichia coli (GC 4560)", "setting": "Escherichia coli; strain GC 4560, 18 hours at 35° C.", "result": 16, "unit": "µg/mL"}, {"measurement": "MIC Enterococcus faecalis (ATCC 29212)", "setting": "Enterococcus sp.; inoculum 5×10^5 CFU/mL", "result": 4, "unit": "µg/mL"}, {"measurement": "MIC Enterococcus faecalis (GC 2242)", "setting": "Enterococcus sp.; inoculum 5×10^5 CFU/mL", "result": 2, "unit": "µg/mL"}, {"measurement": "MIC Enterococcus faecium (GC 2243)", "setting": "Enterococcus sp.; inoculum 5×10^5 CFU/mL", "result": 4, "unit": "µg/mL"}, {"measurement": "MIC Enterococcus faecalis (GC 2691)", "setting": "Enterococcus sp.; inoculum 5×10^5 CFU/mL", "result": 1, "unit": "µg/mL"}, {"measurement": "MIC Enterococcus faecalis (GC 3059)", "setting": "Enterococcus sp.; inoculum 5×10^5 CFU/mL", "result": 16, "unit": "µg/mL"}, {"measurement": "MIC Enterococcus faecalis (GC 4552)", "setting": "Enterococcus sp.; inoculum 5×10^5 CFU/mL", "result": 4, "unit": "µg/mL"}, {"measurement": "MIC Enterococcus faecalis (GC 4553)", "setting": "Enterococcus sp.; inoculum 5×10^5 CFU/mL", "result": 2, "unit": "µg/mL"}, {"measurement": "MIC Enterococcus faecalis (GC 4554)", "setting": "Enterococcus sp.; inoculum 5×10^5 CFU/mL", "result": 2, "unit": "µg/mL"}, {"measurement": "MIC Enterococcus faecium (GC 4556)", "setting": "Enterococcus sp.; inoculum 5×10^5 CFU/mL", "result": 4, "unit": "µg/mL"}, {"measurement": "MIC Enterococcus faecium (GC 4557)", "setting": "Enterococcus sp.; inoculum 5×10^5 CFU/mL", "result": 8, "unit": "µg/mL"}, {"measurement": "MIC Enterococcus avium (GC 4558)", "setting": "Enterococcus sp.; inoculum 5×10^5 CFU/mL", "result": 4, "unit": "µg/mL"}, {"measurement": "MIC Enterococcus faecalis (GC 6189)", "setting": "Enterococcus sp.; inoculum 5×10^5 CFU/mL", "result": 0.5, "unit": "µg/mL"}, {"measurement": "MIC Enterococcus faecalis (ATCC 29212)", "setting": "Enterococcus sp.", "result": 4, "unit": "µg/mL"}, {"measurement": "MIC Enterococcus faecalis (GC 2242)", "setting": "Enterococcus sp.", "result": 2, "unit": "µg/mL"}, {"measurement": "MIC Enterococcus faecium (GC 2243)", "setting": "Enterococcus sp.", "result": 4, "unit": "µg/mL"}, {"measurement": "MIC Enterococcus faecalis (GC 2691)", "setting": "Enterococcus sp.", "result": 1, "unit": "µg/mL"}, {"measurement": "MIC Enterococcus faecalis (GC 3059)", "setting": "Enterococcus sp.", "result": 16, "unit": "µg/mL"}, {"measurement": "MIC Enterococcus faecalis (GC 4552)", "setting": "Enterococcus sp.", "result": 4, "unit": "µg/mL"}, {"measurement": "MIC Enterococcus faecalis (GC 4553)", "setting": "Enterococcus sp.", "result": 2, "unit": "µg/mL"}, {"measurement": "MIC Enterococcus faecalis (GC 4554)", "setting": "Enterococcus sp.", "result": 2, "unit": "µg/mL"}, {"measurement": "MIC Enterococcus faecium (GC 4556)", "setting": "Enterococcus sp.", "result": 4, "unit": "µg/mL"}, {"measurement": "MIC Enterococcus faecium (GC 4557)", "setting": "Enterococcus sp.", "result": 8, "unit": "µg/mL"}, {"measurement": "MIC Enterococcus avium (GC 4558)", "setting": "Enterococcus sp.", "result": 4, "unit": "µg/mL"}, {"measurement": "MIC Enterococcus faecalis (GC 6189)", "setting": "Enterococcus sp.", "result": 0.5, "unit": "µg/mL"}]}
